Literature values, collected in PMC140124 (Biological Procedures Online, 1998).
Where two headings read alike, the source gives them in different places. Values belong to the compound of their own block, whether it stands above or below them.

change of absorption clearance (presence of peptidase inhibitors, ref [1]): did not increase
Compound: O=S1(=O)OC(c2ccc(O)cc2)(c2ccc(O)cc2)c2ccccc21 [phenol red]

Compound: L-tyrosyl-D-arginine [D-KTP]
absorption clearance (the overall transport clearance) (rat everted jejunum, peptidase-resistant isomer, ref [2]): 0.516 µL/min/cm

Compound: L-tyrosyl-L-arginine [KTP]
appearance on the serosal side (absence of peptidase inhibitors, ref [2]): did not appear on the serosal side | appearance on the serosal side (presence of peptidase inhibitors such as o-phenanthrolin, tryptophan hydroxamate and bestatin, ref [2]): appeared on the serosal side
